Numbers after ± are expanded uncertainties.
Test: mn = molality of the nth substance listed, in mol/kg
Settings: Liquid

NC(N)=O [urea] + O
mass density [kg/m3]
Settings	288.15 K	298.15 K	308.15 K
101 kPa, Vibrating tube method, m1 = 0.093	–	998.52 ± 0.09	995.45 ± 0.09
101 kPa, Vibrating tube method, m1 = 0.1063	–	998.73 ± 0.08	995.65 ± 0.08
101 kPa, Vibrating tube method, m1 = 0.141	–	999.27 ± 0.08	996.18 ± 0.08
101 kPa, Vibrating tube method, m1 = 0.152	–	999.45 ± 0.08	996.35 ± 0.08
101 kPa, Vibrating tube method, m1 = 0.1809	–	999.9 ± 0.08	996.79 ± 0.08
101 kPa, Vibrating tube method, m1 = 0.2423	–	1000.86 ± 0.08	997.71 ± 0.08
101 kPa, Vibrating tube method, m1 = 0.4362	–	1003.84 ± 0.08	1000.59 ± 0.08
101 kPa, Vibrating tube method, m1 = 0.5644	–	1005.78 ± 0.08	1002.47 ± 0.08
101 kPa, Vibrating tube method, m1 = 1.008	–	1012.3 ± 0.09	1008.78 ± 0.09
101 kPa, Vibrating tube method, m1 = 1.609	–	1020.67 ± 0.23	1016.91 ± 0.23
101 kPa, Vibrating tube method, m1 = 2.505	–	1032.29 ± 0.22	1028.21 ± 0.22
101 kPa, Vibrating tube method, m1 = 3.376	–	1042.7 ± 0.21	1038.34 ± 0.2
101 kPa, Vibrating tube method, m1 = 4.33	–	1053.2 ± 0.2	1048.55 ± 0.19
101 kPa, Vibrating tube method, m1 = 5.39	–	1063.84 ± 0.91	1058.96 ± 0.89
101 kPa, Vibrating tube method, m1 = 8	–	1086.63 ± 0.83	1081.22 ± 0.81
101 kPa, Vibrating tube method, m1 = 9.9	–	1100.56 ± 0.68	1094.97 ± 0.67
101 kPa, Vibrating tube method, m1 = 12.8	–	1118.82 ± 0.64	1112.9 ± 0.63
10000 kPa, Constant-volume piezometry, m1 = 0.1809	–	1004.31 ± 0.19	1001.1 ± 0.2
10000 kPa, Constant-volume piezometry, m1 = 0.4362	–	1008.22 ± 0.19	1004.89 ± 0.2
10000 kPa, Constant-volume piezometry, m1 = 0.5644	–	1010.14 ± 0.19	1006.76 ± 0.2
10000 kPa, Constant-volume piezometry, m1 = 1.609	–	1024.95 ± 0.26	1021.13 ± 0.27
10000 kPa, Constant-volume piezometry, m1 = 2.505	–	1036.5 ± 0.26	1032.37 ± 0.27
10000 kPa, Constant-volume piezometry, m1 = 3.376	–	1046.86 ± 0.27	1042.44 ± 0.27
10000 kPa, Constant-volume piezometry, m1 = 5.39	–	1067.88 ± 1.1	1062.95 ± 1.1
10000 kPa, Constant-volume piezometry, m1 = 8	–	1090.56 ± 1.1	1085.13 ± 1.1
10000 kPa, Constant-volume piezometry, m1 = 10.99	–	1111.68 ± 1.1	1105.95 ± 1.1
10000 kPa, Constant-volume piezometry, m1 = 12.8	–	1122.59 ± 1.1	1116.69 ± 1.1
25000 kPa, Constant-volume piezometry, m1 = 0.1809	–	1010.8 ± 0.28	1007.46 ± 0.29
25000 kPa, Constant-volume piezometry, m1 = 0.4362	–	1014.67 ± 0.28	1011.22 ± 0.29
25000 kPa, Constant-volume piezometry, m1 = 0.5644	–	1016.58 ± 0.28	1013.08 ± 0.29
25000 kPa, Constant-volume piezometry, m1 = 1.609	–	1031.23 ± 0.33	1027.31 ± 0.34
25000 kPa, Constant-volume piezometry, m1 = 2.505	–	1042.68 ± 0.34	1038.45 ± 0.35
25000 kPa, Constant-volume piezometry, m1 = 3.376	–	1052.93 ± 0.34	1048.43 ± 0.35
25000 kPa, Constant-volume piezometry, m1 = 5.39	–	1073.78 ± 1.1	1068.78 ± 1.1
25000 kPa, Constant-volume piezometry, m1 = 8	–	1096.33 ± 1.1	1090.83 ± 1.1
25000 kPa, Constant-volume piezometry, m1 = 10.99	–	1117.29 ± 1.2	1111.57 ± 1.2
25000 kPa, Constant-volume piezometry, m1 = 12.8	–	1128.17 ± 1.2	1122.24 ± 1.2
50000 kPa, Constant-volume piezometry, m1 = 0.1809	–	1021.19 ± 0.48	1017.66 ± 0.49
50000 kPa, Constant-volume piezometry, m1 = 0.4362	–	1025 ± 0.48	–
50000 kPa, Constant-volume piezometry, m1 = 0.5644	–	1026.87 ± 0.48	–
50000 kPa, Constant-volume piezometry, m1 = 1.609	–	1041.28 ± 0.51	–
50000 kPa, Constant-volume piezometry, m1 = 2.505	–	1052.51 ± 0.52	–
50000 kPa, Constant-volume piezometry, m1 = 3.376	–	1062.57 ± 0.53	–
50000 kPa, Constant-volume piezometry, m1 = 5.39	–	1083.08 ± 1.2	–
50000 kPa, Constant-volume piezometry, m1 = 8	–	1105.37 ± 1.2	–
50000 kPa, Constant-volume piezometry, m1 = 10.99	–	1126.18 ± 1.2	–
50000 kPa, Constant-volume piezometry, m1 = 12.8	–	1136.9 ± 1.3	–
75000 kPa, Constant-volume piezometry, m1 = 0.1809	–	1031.09 ± 0.68	–
75000 kPa, Constant-volume piezometry, m1 = 0.4362	–	1034.82 ± 0.68	–
75000 kPa, Constant-volume piezometry, m1 = 0.5644	–	1036.66 ± 0.68	–
75000 kPa, Constant-volume piezometry, m1 = 1.609	–	1050.81 ± 0.71	–
75000 kPa, Constant-volume piezometry, m1 = 2.505	–	1061.84 ± 0.72	–
75000 kPa, Constant-volume piezometry, m1 = 3.376	–	1071.73 ± 0.73	–
75000 kPa, Constant-volume piezometry, m1 = 5.39	–	1091.95 ± 1.3	–
75000 kPa, Constant-volume piezometry, m1 = 8	–	1113.92 ± 1.3	–
75000 kPa, Constant-volume piezometry, m1 = 10.99	–	1134.57 ± 1.4	–
75000 kPa, Constant-volume piezometry, m1 = 12.8	–	1145.19 ± 1.4	–
100000 kPa, Constant-volume piezometry, m1 = 0.1809	–	1040.52 ± 0.89	–
100000 kPa, Constant-volume piezometry, m1 = 0.4362	–	1044.19 ± 0.89	–
100000 kPa, Constant-volume piezometry, m1 = 0.5644	1049.66 ± 0.88	1046 ± 0.89	–
100000 kPa, Constant-volume piezometry, m1 = 1.609	1063.93 ± 0.91	1059.92 ± 0.92	–
100000 kPa, Constant-volume piezometry, m1 = 2.505	1075.04 ± 0.92	1070.84 ± 0.93	–
100000 kPa, Constant-volume piezometry, m1 = 3.376	1085.01 ± 0.93	1080.63 ± 0.94	–
100000 kPa, Constant-volume piezometry, m1 = 5.39	1105.48 ± 1.4	1100.6 ± 1.4	–
100000 kPa, Constant-volume piezometry, m1 = 8	1127.8 ± 1.5	1122.4 ± 1.5	–
100000 kPa, Constant-volume piezometry, m1 = 10.99	1148.53 ± 1.5	1142.75 ± 1.5	–
100000 kPa, Constant-volume piezometry, m1 = 12.8	1159.2 ± 1.5	1153.24 ± 1.5	–

Reference: the NIST ThermoML archive (doi:10.1016/j.jct.2018.01.024)
